Reference: ChEMBL document CHEMBL4834431, “Design of Dimeric Bile Acid Derivatives as Potent and Selective Human NTCP Inhibitors” (J Med Chem, 2021)
pIC50: −log10 of the molar value. The source made the active and inactive calls. The rule behind the calls is not given here.

Columns and labels:
Hepatitis B virus [1] = test: Antiviral activity against HBV infected in human HepG2-NTCP cells assessed as reduction in HBeAg secretion incubated for 24 hrs followed replacement with fresh medium and measured at day 5 post infection by ELISA; type: functional, organism-based
[2] = target: T1, Hepatic sodium/bile acid cotransporter (Homo sapiens, UniProt Q14973); test: Inhibition of human NTCP-mediated [3H]-TCA uptake expressed in human HepG2 cells in presence of 20 % FBS; type: cell-based
T1 sequence (Q14973 whole entry): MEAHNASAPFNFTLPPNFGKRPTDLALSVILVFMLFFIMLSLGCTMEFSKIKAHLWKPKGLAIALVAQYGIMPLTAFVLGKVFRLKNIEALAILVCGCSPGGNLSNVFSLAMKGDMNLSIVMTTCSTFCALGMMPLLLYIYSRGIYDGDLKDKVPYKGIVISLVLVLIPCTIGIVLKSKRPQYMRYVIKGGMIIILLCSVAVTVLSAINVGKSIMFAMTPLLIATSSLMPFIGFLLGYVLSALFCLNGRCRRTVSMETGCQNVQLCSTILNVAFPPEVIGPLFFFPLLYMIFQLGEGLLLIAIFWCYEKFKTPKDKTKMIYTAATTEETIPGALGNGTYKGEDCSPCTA

[3] = target: T1, Hepatic sodium/bile acid cotransporter; test: Inhibition of human NTCP-mediated [3H]-TCA uptake expressed in human HepG2 cells in presence of 50 % FBS; type: cell-based
[4] = target: T1, Hepatic sodium/bile acid cotransporter; test: Inhibition of human NTCP-mediated [3H]-TCA uptake expressed in human HepG2 cells pretreated for 2 hrs followed by [3H]-TCA addition in absence of FBS; type: cell-based
Hepatitis B virus [5] = test: Antiviral activity against HBV infected in human HepG2-NTCP cells assessed as reduction in HBeAg secretion at 111 to 1000 nM incubated for 24 hrs followed by replacement with fresh medium and measured at day 5 post infection by ELISA; type: functional, organism-based; conditions: dose 111-1000 nM
Hepatitis B virus [6] = test: Antiviral activity against HBV infected in human HepG2-NTCP cells assessed as reduction in intracellular HBV RNA level at 1 uM by qPCR analysis; type: functional, organism-based
Hepatitis B virus [7] = test: Antiviral activity against HBV infected in human HepG2-NTCP cells assessed as reduction in intracellular accumulation of HBcAg at 1 uM by immunostaining based fluorescence microscopic analysis; type: functional, organism-based
Hepatitis B virus [8] = test: Antiviral activity against HBV infected in human HepG2-NTCP cells assessed as reduction in intracellular accumulation of HBsAg at 1 uM by immunostaining based fluorescence microscopic analysis; type: functional, organism-based
Hepatitis delta virus = test: Antiviral activity against HDV infected in human HepG2-NTCP cells assessed as reduction in intranuclear accumulation of HDV delta antigen at 5 uM incubated for 24 hrs followed by replacement with fresh medium and measured at day 5 post infection by DAPI staining based confocal microscopic analysis (reference value: 12.1 %); type: functional; set-up: scale not given: the % may be the effect or the level left
Hepatitis B virus [9] = test: Antiviral activity against HBV infected in human HepG2-NTCP cells assessed as reduction in HBeAg secretion at 1 uM preincubated with compound followed by viral infection by ELISA; type: functional, organism-based
Hepatitis B virus [10] = test: Antiviral activity against HBV infected in human HepG2-NTCP cells assessed as reduction in HBeAg secretion at 1 uM compound added along with viral infection by ELISA; type: functional, organism-based
Hepatitis B virus [11] = test: Antiviral activity against HBV infected in human HepG2-NTCP cells assessed as reduction in HBeAg secretion at 1 uM pre-infected with virus followed by compound addition by ELISA; type: functional, organism-based
[12] = target: T1, Hepatic sodium/bile acid cotransporter; test: Inhibition of FITC-labeled HBV Pre-S1 polypeptide binding to human NTCP expressed in HepG2 cells after 2 to 3 hrs by confocal microscopic analysis; type: cell-based; conditions: time 2-3 hrs
HepG2 [13] = test: Cytotoxicity against human HepG2 cells expressing NTCP assessed as reduction in cell viability at 10 uM after 48 hrs by alamar blue assay; type: cell-based; conditions: hepg2, 48 h
Hepatocyte = test: Cytotoxicity against primary tupaia hepatocytes expressing NTCP assessed as reduction in cell viability at 100 uM after 48 hrs by Cell-Titer Glo assay; type: cell-based; conditions: scandentia
HepG2 [14] = test: Effect on NTCP surface expression in human HepG2-NTCP cells assessed as reduction in NTCP surface expression level after 2 hrs by immunostaining based assay; type: functional, cell-based
[15] = target: T1, Hepatic sodium/bile acid cotransporter; test: Inhibition of human NTCP-mediated [3H]-TCA uptake expressed in human HepG2 cells at 2 uM; type: cell-based; conditions: hepg2, 2 µM
[16] = target: T2, Ileal sodium/bile acid cotransporter (Homo sapiens, UniProt Q12908); test: Inhibition of human ASBT-mediated [3H]-TCA uptake expressed in human HepG2 cells at 2 uM; type: cell-based; conditions: hepg2, 2 µM
T2 sequence (Q12908 whole entry): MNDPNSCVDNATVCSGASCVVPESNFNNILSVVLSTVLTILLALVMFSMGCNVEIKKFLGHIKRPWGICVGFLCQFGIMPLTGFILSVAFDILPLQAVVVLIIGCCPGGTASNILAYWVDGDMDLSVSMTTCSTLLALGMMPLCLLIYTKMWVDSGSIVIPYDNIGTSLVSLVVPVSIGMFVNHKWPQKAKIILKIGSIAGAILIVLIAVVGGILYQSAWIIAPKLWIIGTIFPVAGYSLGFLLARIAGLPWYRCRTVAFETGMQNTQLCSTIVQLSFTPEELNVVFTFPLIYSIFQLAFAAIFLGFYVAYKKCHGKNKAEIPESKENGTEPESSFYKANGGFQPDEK

[17] = target: T1, Hepatic sodium/bile acid cotransporter; test: Inhibition of human NTCP-mediated [3H]-Estrone sulfate uptake expressed in human HepG2 cells at 2 uM; type: cell-based; conditions: hepg2, 2 µM
[18] = target: T3, Solute carrier organic anion transporter family member 1B1 (Homo sapiens, UniProt Q9Y6L6); test: Inhibition of human OATP1B1-mediated [3H]-Estrone sulfate uptake expressed in human HepG2 cells at 2 uM; type: cell-based; conditions: hepg2, 2 µM
T3 sequence (Q9Y6L6 whole entry): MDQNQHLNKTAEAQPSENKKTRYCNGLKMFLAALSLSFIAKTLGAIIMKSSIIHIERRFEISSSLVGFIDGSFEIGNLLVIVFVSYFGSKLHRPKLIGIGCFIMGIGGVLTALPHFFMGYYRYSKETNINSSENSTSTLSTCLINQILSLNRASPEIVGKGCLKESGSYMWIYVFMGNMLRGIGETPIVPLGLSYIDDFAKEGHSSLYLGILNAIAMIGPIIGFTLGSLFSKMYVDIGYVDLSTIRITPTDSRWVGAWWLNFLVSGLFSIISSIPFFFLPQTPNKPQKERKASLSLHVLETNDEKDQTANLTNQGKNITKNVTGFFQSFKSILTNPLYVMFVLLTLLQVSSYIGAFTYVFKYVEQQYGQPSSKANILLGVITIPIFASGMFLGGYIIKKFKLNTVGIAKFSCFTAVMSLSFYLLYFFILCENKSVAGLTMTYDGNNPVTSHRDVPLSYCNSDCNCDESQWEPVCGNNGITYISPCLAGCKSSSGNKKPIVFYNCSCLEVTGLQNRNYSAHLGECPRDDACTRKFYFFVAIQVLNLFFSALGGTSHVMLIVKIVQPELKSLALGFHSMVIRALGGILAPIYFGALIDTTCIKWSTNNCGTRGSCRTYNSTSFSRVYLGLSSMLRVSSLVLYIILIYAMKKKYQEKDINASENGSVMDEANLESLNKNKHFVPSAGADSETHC

[19] = target: T1, Hepatic sodium/bile acid cotransporter; test: Inhibition of human NTCP-mediated NQL-064 uptake expressed in human HepG2 cells incubated for 30 mins; type: cell-based; conditions: hepg2, 0.5 h
[20] = target: T1, Hepatic sodium/bile acid cotransporter; test: Inhibition of human NTCP-mediated NQL-065 uptake expressed in human HepG2 cells incubated for 30 mins; type: cell-based; conditions: hepg2, 0.5 h
Hepatitis B virus [21] = test: Antiviral activity against HBV infected in human HepG2-NTCP cells assessed as reduction in HBeAg secretion preincubated for 2 hrs followed by viral infection by ELISA; type: functional, organism-based
[22] = target: T1, Hepatic sodium/bile acid cotransporter; test: Inhibition of human NTCP-mediated [3H]-TCA uptake expressed in human HepG2 cells; type: cell-based; conditions: human, hepg2
HepG2 [23] = test: Inhibition of monkey NTCP-mediated [3H]-TCA uptake expressed in human HepG2 cells; type: cell-based; conditions: Macaca mulatta
[24] = target: T4, Hepatic sodium/bile acid cotransporter (Mus musculus, UniProt O08705); test: Inhibition of mouse NTCP-mediated [3H]-TCA uptake expressed in human HepG2 cells; type: cell-based
T4 sequence (O08705 whole entry): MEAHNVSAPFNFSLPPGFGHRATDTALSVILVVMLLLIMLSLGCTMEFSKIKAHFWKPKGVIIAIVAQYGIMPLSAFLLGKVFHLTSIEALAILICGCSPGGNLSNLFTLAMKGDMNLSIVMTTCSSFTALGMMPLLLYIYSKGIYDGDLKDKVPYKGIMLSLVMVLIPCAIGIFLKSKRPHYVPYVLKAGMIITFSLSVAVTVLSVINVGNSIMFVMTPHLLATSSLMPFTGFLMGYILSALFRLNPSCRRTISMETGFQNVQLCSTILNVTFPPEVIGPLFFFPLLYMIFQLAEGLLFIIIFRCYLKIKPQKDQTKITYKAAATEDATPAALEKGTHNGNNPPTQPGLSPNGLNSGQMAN

HepG2 [25] = test: Inhibition of tree shrew NTCP-mediated [3H]-TCA uptake expressed in human HepG2 cells; type: cell-based; conditions: Scandentia

`C[C@@H]1CCC(=O)NC(C(=O)O)CNC(=O)CC[C@@H](C)[C@H]2CC[C@H]3[C@@H]4[C@@H](O)C[C@@H]5C[C@@H](CC[C@]5(C)[C@H]4CC[C@]23C)n2cc(nn2)CO[C@@H]2CC[C@@]3(C)[C@@H](C2)C[C@H](O)[C@@H]2[C@@H]3CC[C@]3(C)[C@@H]1CC[C@@H]23` (stereo partly drawn) was tested, and the pIC50 (Hepatitis B virus [1]) was 7.03, the pIC50 [2] was 6.96 and the pIC50 [3] was 6.78. For the same compound, the pIC50 [4] was 7.75.
With `C[C@H](CCCN(CC[C@@H](C)[C@H]1CC[C@H]2[C@@H]3[C@@H](O)C[C@@H]4C[C@H](O)CC[C@]4(C)[C@H]3CC[C@]12C)CCS(=O)(=O)O)[C@H]1CC[C@H]2[C@@H]3[C@@H](O)C[C@@H]4C[C@H](O)CC[C@]4(C)[C@H]3CC[C@]12C` the pIC50 (Hepatitis B virus [1]) was 6.96, the Activity (Hepatitis B virus [5]) was “Active” and the Activity (Hepatitis B virus [6]) was “Active”. The Activity (Hepatitis B virus [7]) was “Active”, the Activity (Hepatitis B virus [8]) was “Active” and the Activity (Hepatitis delta virus) was 4.6%. The Activity (Hepatitis B virus [9]) was “Active”, the Activity (Hepatitis B virus [10]) was “Active” and the Activity (Hepatitis B virus [11]) was “inactive”. The “inhibition (INH)” value [12] was “Active”, the Activity (HepG2 [13]) was “Non-Toxic” and the Activity (Hepatocyte) was “Non-Toxic”. The Activity (HepG2 [14]) was “inactive”, the “inhibition (INH)” value [15] was “Active” and the “inhibition (INH)” value [16] was “Not Active”. The “inhibition (INH)” value [17] was “Active”, the “inhibition (INH)” value [18] was “Not Active” and the “inhibition (INH)” value [19] was “Active”. The “inhibition (INH)” value [20] was “Active”, the Activity (Hepatitis B virus [21]) was “Active” and the “inhibition (INH)” value [22] was “Active”. For the same compound, the inhibition (HepG2 [23]) was “Active”, the “inhibition (INH)” value [24] was “Active” and the inhibition (HepG2 [25]) was “Active”.
With `C[C@H](CCC(=O)NCCS(=O)(=O)O)[C@H]1CC[C@H]2[C@@H]3[C@@H](O)C[C@@H]4C[C@H](OC(=O)CCCC(=O)O[C@@H]5CC[C@@]6(C)[C@@H](C5)C[C@H](O)[C@@H]5[C@@H]6CC[C@]6(C)[C@@H]([C@H](C)CCC(=O)NCCS(=O)(=O)O)CC[C@@H]56)CC[C@]4(C)[C@H]3CC[C@]12C` the pIC50 (Hepatitis B virus [1]) was 7.19, the Activity (Hepatitis B virus [5]) was “Active” and the Activity (Hepatitis B virus [6]) was “Active”. The Activity (Hepatitis B virus [7]) was “Active”, the Activity (Hepatitis B virus [8]) was “Active” and the Activity (Hepatitis delta virus) was 2.8%. For the same compound, the Activity (Hepatitis B virus [9]) was “Active”, the Activity (Hepatitis B virus [10]) was “Active” and the Activity (Hepatitis B virus [11]) was “inactive”. The “inhibition (INH)” value [12] was “Active”, the Activity (HepG2 [13]) was “Non-Toxic” and the Activity (Hepatocyte) was “Non-Toxic”. For the same compound, the Activity (HepG2 [14]) was “inactive”, the “inhibition (INH)” value [15] was “Active” and the “inhibition (INH)” value [16] was “Not Active”. The “inhibition (INH)” value [17] was “Active”, the “inhibition (INH)” value [18] was “Not Active” and the “inhibition (INH)” value [19] was “Active”. The “inhibition (INH)” value [20] was “Active” and the Activity (Hepatitis B virus [21]) was “inactive”.
